Paper PMC4823954, “From fighting depression to conquering tumors: a novel tricyclic thiazepine compound as a tubulin polymerization inhibitor” (Cell Death & Disease, 2016)

Legend:
Assay in all cases: KINOMEscan
Assay type in all cases: binding
Details in all cases: read-out: % Ctrl
PRKG1 = molecular target: T1, PRKG1 (Homo sapiens, UniProt Q13976)
T1 construct: purchased DiscoveRx KINOMEscan
How it was run: (§1)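 Competition binding panel of 442 non-mutant kinases: test compound at 5 and 10 μM competed with an active-site-directed ligand for 1 h with shaking. Bound kinase was eluted with 0.5 μM ligand and quantified by qPCR; %Ctrl = (compound − positive control)/(DMSO − positive control) × 100, lower meaning tighter binding.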

FGFR3 = molecular target: T2, FGFR3 (Homo sapiens, UniProt P22607)
T2 construct: purchased DiscoveRx KINOMEscan
T2 sequence (P22607 23-806): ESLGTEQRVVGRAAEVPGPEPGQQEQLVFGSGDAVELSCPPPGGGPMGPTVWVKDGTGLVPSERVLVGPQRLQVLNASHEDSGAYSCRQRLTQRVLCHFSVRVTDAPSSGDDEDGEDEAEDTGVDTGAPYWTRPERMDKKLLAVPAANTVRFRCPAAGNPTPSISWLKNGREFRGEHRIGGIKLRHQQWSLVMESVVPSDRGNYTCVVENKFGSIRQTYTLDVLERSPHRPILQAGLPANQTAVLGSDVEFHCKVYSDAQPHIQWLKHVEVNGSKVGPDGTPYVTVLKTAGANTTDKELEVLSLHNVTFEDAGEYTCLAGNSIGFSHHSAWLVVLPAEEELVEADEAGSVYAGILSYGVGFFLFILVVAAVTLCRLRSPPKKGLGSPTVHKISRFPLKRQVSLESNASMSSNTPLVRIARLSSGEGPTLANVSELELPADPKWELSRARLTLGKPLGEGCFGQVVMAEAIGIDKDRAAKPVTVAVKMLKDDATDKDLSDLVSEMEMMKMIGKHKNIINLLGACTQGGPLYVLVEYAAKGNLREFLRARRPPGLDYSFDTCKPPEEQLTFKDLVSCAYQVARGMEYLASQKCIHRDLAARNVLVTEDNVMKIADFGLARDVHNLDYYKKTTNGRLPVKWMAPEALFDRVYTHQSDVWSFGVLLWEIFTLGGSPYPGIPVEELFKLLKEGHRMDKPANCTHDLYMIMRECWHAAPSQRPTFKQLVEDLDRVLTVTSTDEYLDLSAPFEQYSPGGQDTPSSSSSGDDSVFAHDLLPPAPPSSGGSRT
How it was run: as §1

EPHB3 = molecular target: T3, EPHB3 (Homo sapiens, UniProt P54753)
T3 construct: purchased DiscoveRx KINOMEscan
How it was run: as §1

CSK = molecular target: T4, CSK (Homo sapiens, UniProt P41240)
T4 construct: purchased DiscoveRx KINOMEscan
T4 sequence (P41240 whole entry): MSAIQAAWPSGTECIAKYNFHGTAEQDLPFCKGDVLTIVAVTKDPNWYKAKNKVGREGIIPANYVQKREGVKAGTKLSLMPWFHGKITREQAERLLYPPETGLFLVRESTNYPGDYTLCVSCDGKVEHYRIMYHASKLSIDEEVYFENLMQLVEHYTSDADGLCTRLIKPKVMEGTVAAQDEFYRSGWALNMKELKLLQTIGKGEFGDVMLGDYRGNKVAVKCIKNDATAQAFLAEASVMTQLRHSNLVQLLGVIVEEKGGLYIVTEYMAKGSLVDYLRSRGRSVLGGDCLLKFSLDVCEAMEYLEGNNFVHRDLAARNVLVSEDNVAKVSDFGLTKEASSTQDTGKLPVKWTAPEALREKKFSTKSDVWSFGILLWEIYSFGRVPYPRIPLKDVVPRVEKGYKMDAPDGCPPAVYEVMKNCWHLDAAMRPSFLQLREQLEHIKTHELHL
How it was run: as §1

BMPR2 = molecular target: T5, BMPR2 (Homo sapiens, UniProt Q13873)
T5 construct: purchased DiscoveRx KINOMEscan
How it was run: as §1

STK39 = molecular target: T6, STK39 (Homo sapiens, UniProt Q9UEW8)
T6 construct: purchased DiscoveRx KINOMEscan
How it was run: as §1

CDK8 = molecular target: T7, CDK8 (Homo sapiens, UniProt P49336)
T7 construct: purchased DiscoveRx KINOMEscan
How it was run: as §1

[1] = molecular target: T8, ABL1(Q252H)-nonphosphorylated (Homo sapiens, UniProt P00519, Q252H)
T8 construct: purchased DiscoveRx KINOMEscan

CDK4-cyclinD1 = molecular target: T9, CDK4-cyclinD1 (Homo sapiens, UniProt P11802)
T9 construct: purchased DiscoveRx KINOMEscan
How it was run: as §1

CDK7 = molecular target: T10, CDK7 (Homo sapiens, UniProt P50613)
T10 construct: purchased DiscoveRx KINOMEscan
How it was run: as §1

ANKK1 = molecular target: T11, ANKK1 (Homo sapiens, UniProt Q8NFD2)
T11 construct: purchased DiscoveRx KINOMEscan
How it was run: as §1

ADCK4 = molecular target: T12, ADCK4 (Homo sapiens, UniProt Q96D53)
T12 construct: purchased DiscoveRx KINOMEscan
T12 sequence (Q96D53 whole entry): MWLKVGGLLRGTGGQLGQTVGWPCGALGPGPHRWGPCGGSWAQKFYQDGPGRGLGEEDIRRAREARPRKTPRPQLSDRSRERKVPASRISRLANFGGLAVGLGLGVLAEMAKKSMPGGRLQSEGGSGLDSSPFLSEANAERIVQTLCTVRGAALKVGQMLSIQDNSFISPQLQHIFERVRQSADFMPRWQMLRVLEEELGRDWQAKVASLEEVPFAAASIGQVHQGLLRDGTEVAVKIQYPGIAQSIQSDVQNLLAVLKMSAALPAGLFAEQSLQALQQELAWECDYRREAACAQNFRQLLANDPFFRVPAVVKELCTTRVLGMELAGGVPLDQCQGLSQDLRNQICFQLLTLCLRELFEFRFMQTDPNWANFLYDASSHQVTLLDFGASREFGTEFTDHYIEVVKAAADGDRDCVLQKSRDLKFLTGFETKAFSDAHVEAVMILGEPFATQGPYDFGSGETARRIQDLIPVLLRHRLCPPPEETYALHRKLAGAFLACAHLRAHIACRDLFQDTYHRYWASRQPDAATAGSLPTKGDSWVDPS
How it was run: as §1

PIK3CA(E542K) = molecular target: T13, PIK3CA(E542K) (Homo sapiens, UniProt P42336, E542K)
T13 construct: purchased DiscoveRx KINOMEscan

MEK1 = molecular target: T14, MEK1 (Homo sapiens, UniProt Q02750)
T14 construct: purchased DiscoveRx KINOMEscan
How it was run: as §1

TAOK3 = molecular target: T15, TAOK3 (Homo sapiens, UniProt Q9H2K8)
T15 construct: purchased DiscoveRx KINOMEscan
How it was run: as §1

IKK-epsilon = molecular target: T16, IKK-epsilon (Homo sapiens, UniProt Q14164)
T16 construct: purchased DiscoveRx KINOMEscan
How it was run: as §1

FGFR1 = molecular target: T17, FGFR1 (Homo sapiens, UniProt P11362)
T17 construct: purchased DiscoveRx KINOMEscan
How it was run: as §1

RET(V804M) = molecular target: T18, RET(V804M) (Homo sapiens, UniProt P07949, V804M)
T18 construct: purchased DiscoveRx KINOMEscan
T18 sequence (P07949 29-1114 V804M): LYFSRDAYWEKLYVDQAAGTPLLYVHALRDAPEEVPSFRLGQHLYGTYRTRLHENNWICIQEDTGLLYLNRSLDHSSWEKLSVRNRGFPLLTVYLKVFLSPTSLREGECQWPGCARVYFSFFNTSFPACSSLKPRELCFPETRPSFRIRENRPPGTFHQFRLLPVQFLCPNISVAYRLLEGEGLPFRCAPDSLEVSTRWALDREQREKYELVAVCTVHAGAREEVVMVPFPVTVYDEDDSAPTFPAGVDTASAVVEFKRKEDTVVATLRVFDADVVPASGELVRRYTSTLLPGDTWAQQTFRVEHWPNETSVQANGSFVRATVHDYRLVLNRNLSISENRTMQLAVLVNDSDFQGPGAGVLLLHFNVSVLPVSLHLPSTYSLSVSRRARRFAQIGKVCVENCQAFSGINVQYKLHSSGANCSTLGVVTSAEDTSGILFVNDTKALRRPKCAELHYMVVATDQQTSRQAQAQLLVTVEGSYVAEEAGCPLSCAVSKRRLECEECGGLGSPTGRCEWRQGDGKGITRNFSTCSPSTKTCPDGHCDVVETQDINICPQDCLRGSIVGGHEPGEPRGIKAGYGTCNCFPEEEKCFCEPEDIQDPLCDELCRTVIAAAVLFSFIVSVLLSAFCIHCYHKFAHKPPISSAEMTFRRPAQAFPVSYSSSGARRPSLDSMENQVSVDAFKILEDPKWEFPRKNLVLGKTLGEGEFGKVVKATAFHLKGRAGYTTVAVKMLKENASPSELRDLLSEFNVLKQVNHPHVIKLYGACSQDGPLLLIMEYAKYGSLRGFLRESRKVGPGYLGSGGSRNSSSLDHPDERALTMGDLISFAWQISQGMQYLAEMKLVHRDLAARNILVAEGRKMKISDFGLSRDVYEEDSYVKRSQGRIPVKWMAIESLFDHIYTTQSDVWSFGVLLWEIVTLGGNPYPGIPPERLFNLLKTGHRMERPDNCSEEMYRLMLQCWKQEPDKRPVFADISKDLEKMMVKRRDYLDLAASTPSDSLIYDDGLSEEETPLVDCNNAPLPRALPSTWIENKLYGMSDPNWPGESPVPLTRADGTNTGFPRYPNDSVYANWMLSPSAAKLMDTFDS

PIK3CB = molecular target: T19, PIK3CB (Homo sapiens, UniProt P42338)
T19 construct: purchased DiscoveRx KINOMEscan
How it was run: as §1

PHKG1 = molecular target: T20, PHKG1 (Homo sapiens, UniProt Q16816)
T20 construct: purchased DiscoveRx KINOMEscan
How it was run: as §1

MST4 = molecular target: T21, MST4 (Homo sapiens, UniProt Q9P289)
T21 construct: purchased DiscoveRx KINOMEscan
How it was run: as §1

CSNK1A1L = molecular target: T22, CSNK1A1L (Homo sapiens, UniProt Q8N752)
T22 construct: purchased DiscoveRx KINOMEscan
T22 sequence (Q8N752 whole entry): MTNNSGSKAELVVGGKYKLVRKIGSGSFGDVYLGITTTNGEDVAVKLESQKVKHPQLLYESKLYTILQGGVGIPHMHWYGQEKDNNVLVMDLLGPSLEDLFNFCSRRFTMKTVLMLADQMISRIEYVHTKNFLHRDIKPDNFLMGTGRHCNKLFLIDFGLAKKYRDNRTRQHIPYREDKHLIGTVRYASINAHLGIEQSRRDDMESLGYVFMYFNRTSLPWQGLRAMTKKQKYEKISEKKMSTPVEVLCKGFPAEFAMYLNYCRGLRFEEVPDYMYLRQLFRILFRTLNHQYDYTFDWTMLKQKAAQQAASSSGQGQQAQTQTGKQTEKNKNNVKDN
How it was run: as §1

FAK = molecular target: T23, FAK (Homo sapiens, UniProt Q05397)
T23 construct: purchased DiscoveRx KINOMEscan
How it was run: as §1

TNIK = molecular target: T24, TNIK (Homo sapiens, UniProt Q9UKE5)
T24 construct: purchased DiscoveRx KINOMEscan
How it was run: as §1

PAK4 = molecular target: T25, PAK4 (Homo sapiens, UniProt O96013)
T25 construct: purchased DiscoveRx KINOMEscan
T25 sequence (O96013 whole entry): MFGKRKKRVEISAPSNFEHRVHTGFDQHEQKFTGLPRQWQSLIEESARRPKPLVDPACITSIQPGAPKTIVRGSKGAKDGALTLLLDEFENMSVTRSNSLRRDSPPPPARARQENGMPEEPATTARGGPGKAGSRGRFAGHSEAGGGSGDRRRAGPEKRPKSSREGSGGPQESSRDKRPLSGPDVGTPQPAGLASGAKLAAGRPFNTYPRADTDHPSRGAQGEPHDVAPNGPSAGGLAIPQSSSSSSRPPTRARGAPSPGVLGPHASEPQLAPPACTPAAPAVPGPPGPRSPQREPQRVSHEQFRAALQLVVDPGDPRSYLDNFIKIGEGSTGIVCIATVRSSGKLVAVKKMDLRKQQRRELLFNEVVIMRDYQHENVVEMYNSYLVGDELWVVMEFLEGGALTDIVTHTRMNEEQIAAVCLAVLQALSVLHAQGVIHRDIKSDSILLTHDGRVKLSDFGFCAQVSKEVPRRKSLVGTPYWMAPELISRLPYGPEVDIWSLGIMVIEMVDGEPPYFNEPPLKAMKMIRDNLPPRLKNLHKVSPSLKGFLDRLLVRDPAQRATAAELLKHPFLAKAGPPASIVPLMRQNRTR
How it was run: as §1

TRKA = molecular target: T26, TRKA (Homo sapiens, UniProt P04629)
T26 construct: purchased DiscoveRx KINOMEscan
How it was run: as §1

PLK2 = molecular target: T27, PLK2 (Homo sapiens, UniProt Q9NYY3)
T27 construct: purchased DiscoveRx KINOMEscan
How it was run: as §1

INSRR = molecular target: T28, INSRR (Homo sapiens, UniProt P14616)
T28 construct: purchased DiscoveRx KINOMEscan
T28 sequence (P14616 27-1297): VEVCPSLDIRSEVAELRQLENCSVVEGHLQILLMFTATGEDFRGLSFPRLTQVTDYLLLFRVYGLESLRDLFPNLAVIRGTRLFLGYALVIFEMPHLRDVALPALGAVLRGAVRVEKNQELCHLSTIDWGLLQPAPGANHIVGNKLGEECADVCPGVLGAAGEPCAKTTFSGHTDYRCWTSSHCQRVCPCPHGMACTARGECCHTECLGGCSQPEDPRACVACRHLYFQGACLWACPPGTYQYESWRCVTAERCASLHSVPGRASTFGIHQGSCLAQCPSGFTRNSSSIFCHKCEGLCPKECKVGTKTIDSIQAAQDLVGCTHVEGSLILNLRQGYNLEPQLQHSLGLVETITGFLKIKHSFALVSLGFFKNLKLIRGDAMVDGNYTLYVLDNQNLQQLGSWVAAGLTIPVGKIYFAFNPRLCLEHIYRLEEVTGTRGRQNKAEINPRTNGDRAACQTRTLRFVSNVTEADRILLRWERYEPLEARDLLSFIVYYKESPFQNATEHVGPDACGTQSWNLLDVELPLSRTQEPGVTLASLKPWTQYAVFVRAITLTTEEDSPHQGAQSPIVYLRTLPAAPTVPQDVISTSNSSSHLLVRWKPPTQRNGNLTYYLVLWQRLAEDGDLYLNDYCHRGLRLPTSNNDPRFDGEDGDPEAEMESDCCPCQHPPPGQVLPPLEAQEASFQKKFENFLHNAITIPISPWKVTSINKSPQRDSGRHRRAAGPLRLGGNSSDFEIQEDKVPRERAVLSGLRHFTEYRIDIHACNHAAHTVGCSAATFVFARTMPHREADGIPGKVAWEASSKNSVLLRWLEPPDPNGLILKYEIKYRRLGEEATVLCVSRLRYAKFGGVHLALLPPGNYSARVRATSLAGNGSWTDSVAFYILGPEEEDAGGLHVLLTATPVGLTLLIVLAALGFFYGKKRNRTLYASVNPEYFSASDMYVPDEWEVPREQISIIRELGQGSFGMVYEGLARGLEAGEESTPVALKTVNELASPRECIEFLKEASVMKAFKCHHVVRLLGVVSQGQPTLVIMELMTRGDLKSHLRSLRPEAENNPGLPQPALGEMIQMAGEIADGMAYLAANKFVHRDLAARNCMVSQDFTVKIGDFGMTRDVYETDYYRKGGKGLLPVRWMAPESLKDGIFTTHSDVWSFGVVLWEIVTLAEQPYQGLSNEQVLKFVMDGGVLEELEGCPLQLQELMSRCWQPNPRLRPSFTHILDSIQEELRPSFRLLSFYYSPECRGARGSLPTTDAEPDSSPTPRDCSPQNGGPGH
How it was run: as §1

DRAK1 = molecular target: T29, DRAK1 (Homo sapiens, UniProt Q9UEE5)
T29 construct: purchased DiscoveRx KINOMEscan
How it was run: as §1

LZK = molecular target: T30, LZK (Homo sapiens, UniProt O43283)
T30 construct: purchased DiscoveRx KINOMEscan
How it was run: as §1

Work on `Cc1ccc(C2=Nc3cccnc3S(=O)(=O)c3ccccc32)cc1` [TBPT, 6-(p-tolyl)benzo[f] pyrido[2,3-b][1,4] thiazepine 11,11-dioxide] yielded a remaining binding at 5 µM (PRKG1; 5 μM) of 96%, a remaining binding at 10 µM (PRKG1; 10 μM) of 100% and a remaining binding at 5 µM (FGFR3; 5 μM) of 89%. The remaining binding at 10 µM (FGFR3; 10 μM) was 100%, the remaining binding at 5 µM (EPHB3; 5 μM) was 96% and the remaining binding at 10 µM (EPHB3; 10 μM) was 100%. The remaining binding at 5 µM (CSK; 5 μM) was 96%, the remaining binding at 10 µM (CSK; 10 μM) was 100% and the remaining binding at 5 µM (BMPR2; 5 μM) was 85%. It also gave a remaining binding at 10 µM (BMPR2; 10 μM) of 100%, a remaining binding at 5 µM (STK39; 5 μM) of 100% and a remaining binding at 10 µM (STK39; 10 μM) of 62%. The remaining binding at 5 µM (CDK8; 5 μM) was 94%, the remaining binding at 10 µM (CDK8; 10 μM) was 100% and the remaining binding at 5 µM ([1]; 5 μM) was 79%. For the same compound, the remaining binding at 10 µM ([1]; 10 μM) was 100%, the remaining binding at 5 µM (CDK4-cyclinD1; 5 μM) was 100% and the remaining binding at 10 µM (CDK4-cyclinD1; 10 μM) was 79%. It also gave a remaining binding at 5 µM (CDK7; 5 μM) of 83%, a remaining binding at 10 µM (CDK7; 10 μM) of 100% and a remaining binding at 5 µM (ANKK1; 5 μM) of 91%. It also gave a remaining binding at 10 µM (ANKK1; 10 μM) of 72%, a remaining binding at 5 µM (ADCK4; 5 μM) of 83% and a remaining binding at 10 µM (ADCK4; 10 μM) of 94%. It also gave a remaining binding at 5 µM (PIK3CA(E542K); 5 μM) of 93%, a remaining binding at 10 µM (PIK3CA(E542K); 10 μM) of 97% and a remaining binding at 5 µM (MEK1; 5 μM) of 100%. The remaining binding at 10 µM (MEK1; 10 μM) was 92%, the remaining binding at 5 µM (TAOK3; 5 μM) was 89% and the remaining binding at 10 µM (TAOK3; 10 μM) was 100%. The remaining binding at 5 µM (IKK-epsilon; 5 μM) was 80%, the remaining binding at 10 µM (IKK-epsilon; 10 μM) was 100% and the remaining binding at 5 µM (FGFR1; 5 μM) was 98%. For the same compound, the remaining binding at 10 µM (FGFR1; 10 μM) was 100%, the remaining binding at 5 µM (RET(V804M); 5 μM) was 84% and the remaining binding at 10 µM (RET(V804M); 10 μM) was 96%. The remaining binding at 5 µM (PIK3CB; 5 μM) was 36%, the remaining binding at 10 µM (PIK3CB; 10 μM) was 100% and the remaining binding at 5 µM (PHKG1; 5 μM) was 100%. The remaining binding at 10 µM (PHKG1; 10 μM) was 94%, the remaining binding at 5 µM (MST4; 5 μM) was 63% and the remaining binding at 10 µM (MST4; 10 μM) was 99%. It also gave a remaining binding at 5 µM (CSNK1A1L; 5 μM) of 100%, a remaining binding at 10 µM (CSNK1A1L; 10 μM) of 91% and a remaining binding at 5 µM (FAK; 5 μM) of 92%. For the same compound, the remaining binding at 10 µM (FAK; 10 μM) was 92%, the remaining binding at 5 µM (TNIK; 5 μM) was 84% and the remaining binding at 10 µM (TNIK; 10 μM) was 97%. It also gave a remaining binding at 5 µM (PAK4; 5 μM) of 100%, a remaining binding at 10 µM (PAK4; 10 μM) of 100% and a remaining binding at 5 µM (TRKA; 5 μM) of 100%. It also gave a remaining binding at 10 µM (TRKA; 10 μM) of 97%, a remaining binding at 5 µM (PLK2; 5 μM) of 100% and a remaining binding at 10 µM (PLK2; 10 μM) of 83%. The remaining binding at 5 µM (INSRR; 5 μM) was 100%, the remaining binding at 10 µM (INSRR; 10 μM) was 100% and the remaining binding at 5 µM (DRAK1; 5 μM) was 94%. For the same compound, the remaining binding at 10 µM (DRAK1; 10 μM) was 92%, the remaining binding at 5 µM (LZK; 5 μM) was 100% and the remaining binding at 10 µM (LZK; 10 μM) was 93%.
